Consider 8 compounds from US7560536B2, “Morning glory-derived anticancer agents, and novel ipomoeassin compounds” (Virginia Tech Intellectual Properties, Inc., priority 2005, dated 2009).

pIC50: −log10 of the molar value. Where two headings read alike, the source gives them in different places.

The test system of the assay is A2780 human ovarian cancer cell line. Nature of the assay: Cytotoxicity bioassay against the A2780 ovarian cancer cell line. The format is cell-based. As for the experimental part: Cytotoxicity Bioassays. Cytotoxicity measurements were performed against the A2780 ovarian cancer cell line as previously described. The A2780 cell line is a drug-sensitive ovarian cancer cell line.

Setting [1] is: Homo sapiens, A2780, read-out: IC50 (concentration that inhibited 50% of the growth of the A2780 human ovarian cell line).

As for `C/C=C(\C)C(=O)OC1C(O)C2OC(COC(=O)CCC(=O)CCCCCC[C@H](CCC)OC3OC(C)C(OC(C)=O)C(O)C3O2)C1OC(=O)/C=C/c1ccccc1` (stereo partly drawn) [Compound 1, Tetradecanoic acid, 11-[[4-O-acetyl-6-deoxy-2-O-[3-O-[(2E)-2-methyl-1-oxo-2-butenyl]-4-O-[(2E)-1-oxo-3-phenyl-2-propenyl]-β-D-glucopyranosyl]-β-D-galactopyranosyl]oxy]-4-oxo-, intramol. 1,6″-ester, (11S)-], the pIC50 under setting [1] is 6.30.

Turning to `C/C=C(\C)C(=O)OC1C(O)C2OC(COC(=O)CCC(=O)CCCCCC[C@H](CCC)OC3OC(C)C(O)C(O)C3O2)C1OC(=O)/C=C/c1ccccc1` (stereo partly drawn) [Compound 2, Tetradecanoic acid, 11-[[6-deoxy-2-O-[3-O-[(2E)-2-methyl-1-oxo-2-butenyl]-4-O-[(2E)-1-oxo-3-phenyl-2-propenyl]-β-D-glucopyranosyl]-β-D-galactopyranosyl]oxy]-4-oxo-, intramol. 1,6″-ester, (11S)-], the pIC50 under setting [1] was 6.40.

With `C/C=C(\C)C(=O)OC1C(O)C2OC(COC(=O)CCC(=O)[C@@H](O)CCCCC[C@H](CCC)OC3OC(C)C(OC(C)=O)C(O)C3O2)C1OC(=O)/C=C/c1ccccc1` (stereo partly drawn) [Compound 3, Tetradecanoic acid, 11-[[4-O-acetyl-6-deoxy-2-O-[3-O-[(2E)-2-methyl-1-oxo-2-butenyl]-4-O-[(2E)-1-oxo-3-phenyl-2-propenyl]-β-D-glucopyranosyl]-β-D-galactopyranosyl]oxy]-5-hydroxy-4-oxo-, intramol. 1,6″-ester, (5S,11S)-], the pIC50 under setting [1] is 5.54.

Turning to `C/C=C(\C)C(=O)OC1C(O)C2OC(COC(=O)CCC(=O)[C@@H](OC(C)=O)CCCCC[C@H](CCC)OC3OC(C)C(OC(C)=O)C(O)C3O2)C1OC(=O)/C=C/c1ccccc1` (stereo partly drawn) [Compound 4, Tetradecanoic acid, 11-[[4-O-acetyl-6-deoxy-2-O-[3-O-[(2E)-2-methyl-1-oxo-2-butenyl]-4-O-[(2E)-1-oxo-3-phenyl-2-propenyl]-β-D-glucopyranosyl]-β-D-galactopyranosyl]oxy]-5-(acetyloxy)-4-oxo-, intramol. 1,6″-ester, (5S,11S)-], the pIC50 reads like this: (A2780 human ovarian cancer cell line, read-out: IC50 against A2780) 7.46; under setting [1], 7.46.

Consider `C/C=C(\C)C(=O)OC1C(O)C2OC(COC(=O)CCC(=O)[C@@H](OC(C)=O)CCCCC[C@H](CCC)OC3OC(C)C(O)C(O)C3O2)C1OC(=O)/C=C/c1ccccc1` (stereo partly drawn) [Compound 5, Tetradecanoic acid, 5-(acetyloxy)-11-[[6-deoxy-2-O-[3-O-[(2E)-2-methyl-1-oxo-2-butenyl]-4-O-[(2E)-1-oxo-3-phenyl-2-propenyl]-β-D-glucopyranosyl]-β-D-galactopyranosyl]oxy]-4-oxo-, intramol. 1,6″-ester, (5S,11S)-], for which the pIC50 under setting [1] was 5.48.

For `C/C=C(\C)C(=O)OC1C(OC(=O)/C=C/c2ccccc2)C2COC(=O)CCC(=O)CCCCCC[C@H](CCC)OC3OC(C)C(OC(C)=O)C(OC(C)=O)C3OC(O2)C1OC(C)=O` (stereo partly drawn) [Compound 6, 3′,2″-O-Diacetyl ipomoeassin A], the pIC50 under setting [1] was 4.80.

Take `C/C=C(\C)C(=O)OC1C(OC(=O)/C=C/c2ccccc2)C2COC(=O)CCC(=O)[C@@H](OC(C)=O)CCCCC[C@H](CCC)OC3OC(C)C(OC(C)=O)C(OC(C)=O)C3OC(O2)C1OC(C)=O` (stereo partly drawn) [Compound 7, 5,3′,2″-O-Triacetyl ipomoeassin C]: the pIC50 under setting [1] was 4.72.

Regarding `C/C=C(\C)C(=O)OC1C(O)C2OC(COC(=O)CCC(=O)CCCCCCC(CCCCC)OC3OC(C)C(OC(C)=O)C(O)C3O2)C1OC(=O)/C=C/c1ccccc1` [Compound 14, Hexadecanoic acid, 11-[[4-O-acetyl-6-deoxy-2-O-[3-O-[(2E)-2-methyl-1-oxo-2-butenyl]-4-O-[(2E)-1-oxo-3-phenyl-2-propenyl]-β-D-glucopyranosyl]-β-D-galactopyranosyl]oxy]-4-oxo-, intramol. 1,6″-ester, (11S)-], the pIC50 under setting [1] is 7.44.
